A value given as a limit tells only on which side of the number the result lay.

In this test the target is GLP-1R (Homo sapiens, UniProt P43220). The test is described as follows: Agonist activity on GLP-1R, HTRF cAMP detection in stably transfected GLP-1R/HEK293 cells. The settings on record: for EC50: 30 min incubation; for Max activity: relative to top concentration of reference GLP-1(7-37). Type of test: cell-based. As for the experimental part:
Detection of Agonist Activity of the Test Compounds on GLP-1R
• 1) The test compound was dissolved in DMSO and diluted 4-fold with Bravo for a total of 10 concentration gradients (the starting concentration was 1 mM). […] HBSS (10 mL) pre-warmed at 37° C. was added, mixed gently, and centrifuged at 1000 rpm for 5 minutes. The supernatant was discarded and another 10 mL of […] was added and mixed gently. […] The plate was shaken to mix at 2000 rpm for 60 seconds. • 7) The cells in the 384-well plate were incubated in CO2 cell incubator at 37° C. for 30 min. • 8) 10 μL of HTRF cAMP detection solution was added to the 384-well plate, stick with sealing film, and incubated at room temperature for 1 hour. • 9) After 1 hour of incubation, the sealing film was removed. The plate was put into the EnVision microplate reader to read the values of OD665 nm and OD615 nm.

Chain of GLP-1R (P43220 24-463): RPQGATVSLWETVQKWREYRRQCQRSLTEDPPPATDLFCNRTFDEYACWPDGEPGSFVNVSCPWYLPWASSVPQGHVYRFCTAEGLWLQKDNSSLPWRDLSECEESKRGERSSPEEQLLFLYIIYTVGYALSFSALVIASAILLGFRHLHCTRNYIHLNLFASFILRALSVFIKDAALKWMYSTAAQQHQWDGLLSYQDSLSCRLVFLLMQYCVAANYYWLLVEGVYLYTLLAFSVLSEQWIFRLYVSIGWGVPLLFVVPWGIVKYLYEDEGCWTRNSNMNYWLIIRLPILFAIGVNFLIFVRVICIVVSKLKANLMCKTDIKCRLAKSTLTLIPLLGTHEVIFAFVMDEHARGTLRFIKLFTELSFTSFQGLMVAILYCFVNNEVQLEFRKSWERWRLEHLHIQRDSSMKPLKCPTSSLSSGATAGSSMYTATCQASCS

As for `N#Cc1ccc(OCc2cccc(COC3CCN(Cc4nc5ccc(C(=O)O)cc5n4C[C@@H]4CCO4)CC3)n2)c(F)c1` [Compound C1, (S)-2-((4-((6-((4-cyano-2-fluorophenoxy)methyl)pyridin-2-yl)methoxy)piperidin-1-yl)methyl)-1-(oxetan-2-ylmethyl)-1H-benzo[d]imidazole-6-carboxylic acid], the 50% effective concentration (EC50) (usually the midpoint of the concentration-response curve) came out at 1190 nM and the Max activity worked out at 76.6%. As for `CCn1cncc1Cn1c(CN2CCC(Oc3cccc(COc4ccc(C#N)cc4F)c3)CC2)nc2ccc(C(=O)O)cc21` [Compound 13, 2-((4-(3-((4-cyano-2-fluorophenoxy)methyl)phenoxy)piperidin-1-yl)methyl)-1-((1-ethyl-1H-imidazol-5-yl)methyl)-1H-benzo[d]imidazole-6-carboxylic acid], the 50% effective concentration (EC50) worked out at 0.114 nM and the Max activity is given as 99.4%. Regarding `N#CCC1(Cn2c(CN3CCC(Oc4cccc(CSc5ccc(Cl)cc5F)n4)CC3)nc3ccc(C(=O)O)cc32)CC1` [Compound C7, 2-((4-((6-((4-chloro-2-fluorophenylthio)methyl)pyridin-2-yl)oxy)piperidin-1-yl)methyl)-1-((1-(cyanomethyl)cyclopropyl)methyl)-1H-benzo[d]imidazole-6-carboxylic acid], a half-maximal effect (EC50) was put at 23.5 nM and the Max activity turned out to be 90.1%. In turn, `CCN1CCC[C@H]1Cn1c(CN2CCC(Oc3cccc(COc4ccc(C#N)cc4F)n3)CC2)nc2ccc(C(=O)O)cc21` [Compound C35, (S)-2-((4-((6-((4-cyano-2-fluorophenoxy)methyl)pyridin-2-yl)oxy)piperidin-1-yl)methyl)-1-((1-ethylpyrrolidin-2-yl)methyl)-1H-benzo[d]imidazole-6-carboxylic acid] registered an EC50 above 100 nM. Take `CCn1cncc1Cn1c(CN2CCC(Oc3cccc(OCc4ccc(C#N)cc4F)n3)CC2)nc2ccc(/C=C/C(=O)O)cc21` [Compound C2, (E)-3-(2-((4-((6-((4-cyano-2-fluorobenzyl)oxy)pyridin-2-yl)oxy)piperidin-1-yl)methyl)-1-((1-ethyl-1H-imidazol-5-yl)methyl)-1H-benzo[d]imidazol-6-yl)acrylic acid]: the midpoint of the response, the EC50, lay at 0.614 nM and the Max activity is 123.1%. `N#Cc1ccc(OCc2cccc(OC3CCN(Cc4nc5ccc(C(=O)O)cc5n4C[C@@H]4CCO4)CC3)c2)c(F)c1` [Compound 67, (S)-2-((4-(3-((4-cyano-2-fluorophenoxy)methyl)phenoxy)piperidin-1-yl)methyl)-1-(oxetan-2-ylmethyl)-1H-benzo[d]imidazole-6-carboxylic acid]: the EC50 was determined as 1.09 nM and the Max activity is on record as 106.4%. For `N#CCC1(Cn2c(CN3CCC(Oc4cccc(COc5ccc(C#N)cc5F)n4)CC3)nc3c(F)cc(C(=O)O)cc32)CC1` [Compound 134, 2-((4-((6-((4-cyano-2-fluorophenoxy)methyl)pyridin-2-yl)oxy)piperidin-1-yl)methyl)-1-((1-(cyanomethyl)cyclopropyl)methyl)-4-fluoro-1H-benzimidazole-6-carboxylic acid], in that order: 0.133 nM and 117.3%. With `N#CCC1(Cn2c(CN3CCC(Oc4cccc(COc5ccc(C#N)cc5F)n4)CC3)nc3ccc(C(=O)O)cc32)CC1` [Compound 133, 2-((4-((6-((4-cyano-2-fluorophenoxy)methyl)pyridin-2-yl)oxy)piperidin-1-yl)methyl)-1-((1-(cyanomethyl)cyclopropyl)methyl)-1H-benzo[d]imidazole-6-carboxylic acid], the EC50 is 0.264 nM and the Max activity worked out at 126.6%. Take `N#Cc1ccc(OCc2cccc(OC3CCN(Cc4nc5ccc(C(=O)O)cc5n4Cc4cncn4CC4CC4)CC3)n2)c(F)c1` [Compound C33, 2-((4-((6-((4-cyano-2-fluorophenoxy)methyl)pyridin-2-yl)oxy)piperidin-1-yl)methyl)-1-((1-(cyclopropylmethyl)-1H-imidazol-5-yl)methyl)-1H-benzo[d]imidazole-6-carboxylic acid]: the EC50 stood at 0.068 nM and the Max activity is reported as 99.1%.

Regarding `CCn1cncc1Cn1c(CN2CCC(Sc3cccc(COc4ccc(C#N)cc4F)n3)CC2)nc2ccc(C(=O)O)cc21` [Compound C37, 2-((4-((6-((4-cyano-2-fluorophenoxy)methyl)pyridin-2-yl)thio)piperidin-1-yl)methyl)-1-((1-ethyl-1H-imidazol-5-yl)methyl)-1H-benzo[d]imidazole-6-carboxylic acid], the EC50 was 0.223 nM and the Max activity is given as 121.0%. For `O=C(O)/C=C/c1ccc2nc(CN3CCC(Oc4ccc(F)c(OCc5ccc(Cl)cc5F)n4)CC3)n(C[C@@H]3CCO3)c2c1` [Compound S36], in that order: 150 nM and 114.2%.

For the compound `CCn1nc(C)cc1Cn1c(CN2CCC(Oc3cccc(COc4ccc(C#N)cc4F)n3)CC2)nc2ccc(C(=O)O)cc21` [Compound C40, 2-((4-((6-((4-cyano-2-fluorophenoxy)methyl)pyridin-2-yl)oxy)piperidin-1-yl)methyl)-1-((1-ethyl-3-methyl-1H-pyrazol-5-yl)methyl)-1H-benzo[d]imidazole-6-carboxylic acid], a half-maximal effect (EC50) was put at 6.5 nM and the Max activity turned out to be 90.7%. Turning to `N#CCC1(Cn2c(CN3CCC(Oc4cccc(OCc5ccc(C#N)cc5F)n4)CC3)nc3c(F)cc(C(=O)O)cc32)CC1` [Compound S20], a half-maximal response (EC50) required 0.962 nM and the Max activity is on record as 129.1%.

For `CC(C)n1cncc1Cn1c(CN2CCC(Oc3cccc(COc4ccc(C#N)cc4F)n3)CC2)nc2ccc(C(=O)O)cc21` [Compound C31, 2-((4-((6-((4-cyano-2-fluorophenoxy)methyl)pyridin-2-yl)oxy)piperidin-1-yl)methyl)-1-((1-isopropyl-1H-imidazol-5-yl)methyl)-1H-benzo[d]imidazole-6-carboxylic acid], the concentration giving a half-maximal response (EC50) came to 0.833 nM and the Max activity was 106.6%. `CCn1cncc1Cn1c(CN2CCC(Oc3cccc(COc4ccc(C#N)cc4F)n3)CC2)nc2ccc(C(=O)O)cc21` [Compound 1, 2-((4-((6-((4-cyano-2-fluorophenoxy)methyl)pyridin-2-yl)oxy)piperidin-1-yl)methyl)-1-((1-ethyl-1H-imidazol-5-yl)methyl)-1H-benzo[d]imidazole-6-carboxylic acid]: the concentration giving a half-maximal response (EC50) was 0.088 nM and the Max activity came out at 116.8%.

Consider `O=C(O)c1ccc2nc(CN3CCC(Oc4cccc(CSc5ccc(Cl)cc5F)n4)CC3)n(C[C@@H]3CCO3)c2c1` [Compound C8], for which it took 25.6 nM to reach a half-maximal effect (EC50) and the Max activity was found to be 117.4%. As for `N#Cc1ccc(OCc2cccc(SC3CCN(Cc4nc5ccc(C(=O)O)cc5n4C[C@@H]4CCO4)CC3)n2)c(F)c1` [Compound C41, (S)-2-((4-((6-((4-cyano-2-fluorophenoxy)methyl)pyridin-2-yl)thio)piperidin-1-yl)methyl)-1-(oxetan-2-ylmethyl)-1H-benzo[d]imidazole-6-carboxylic acid], it took 4.16 nM to reach a half-maximal effect (EC50) and the Max activity amounted to 122.3%. For `N#CCC1(Cn2c(CN3CCC(Oc4cccc(CSc5ccc(C#N)cc5F)n4)CC3)nc3ccc(C(=O)O)cc32)CC1` [Compound C13, 2-((4-((6-(((4-cyano-2-fluorophenyl)thio)methyl)pyridin-2-yl)oxy)piperidin-1-yl)methyl)-1-((1-(cyanomethyl)cyclopropyl)methyl)-1H-benzo[d]imidazole-6-carboxylic acid], it took 1.82 nM to reach a half-maximal effect (EC50) and the Max activity was 141.7%.

With `N#Cc1ccc(COc2cccc(OCC3CCN(Cc4nc5ccc(C(=O)O)cc5n4C[C@@H]4CCO4)CC3)n2)c(F)c1` [Compound S1], the response was half-maximal at 1400 nM (EC50) and the Max activity was found to be 93.7%. Take “Glucagon-like peptide-1 [GLP-1(7-37), reference compound]”: the Max activity is listed as 98.1%.

As to `CC(C)n1cncc1Cn1c(CN2CCC(Oc3cccc(COc4ccc(Br)cc4F)c3)CC2)nc2ccc(C(=O)O)cc21` [Compound C30, 2-((4-(3-((4-bromo-2-fluorophenoxy)methyl)phenoxy)piperidin-1-yl)methyl)-1-((1-isopropyl-1H-imidazol-5-yl)methyl)-1H-benzo[d]imidazole-6-carboxylic acid], the response was half-maximal at 5.85 nM (EC50) and the Max activity is 121.2%. Turning to `N#CCC1(Cn2c(CN3CCC(Oc4ccc(F)c(OCc5ccc(Cl)cc5F)n4)CC3)nc3c(F)cc(C(=O)O)cc32)CC1` [Compound S41, 2-((4-((6-((4-chloro-2-fluorobenzyl)oxy)-5-fluoropyridin-2-yl)oxy)piperidin-1-yl)methyl)-1-((1-(cyanomethyl)cyclopropyl)methyl)-4-fluoro-1H-benzo[d]imidazole-6-carboxylic acid], the 50% effective concentration (EC50) was 21.7 nM and the Max activity came out at 94.8%.

As to `N#Cc1ccc(OCc2cccc(OC3CCN(Cc4cc5ccc(C(=O)O)cc5n4CC4CCO4)CC3)n2)c(F)c1` (stereo not drawn) [Compound C42, 2-((4-((6-((4-cyano-2-fluorophenoxy)methyl)pyridin-2-yl)oxy)piperidin-1-yl)methyl)-1-(oxetan-2-ylmethyl)-1H-indole-6-carboxylic acid], the half-maximal effective concentration (EC50) is above 100 nM. Regarding `C#Cc1ccc(OCc2cccc(OC3CCN(Cc4nc5ccc(C(=O)O)cc5n4CC4(CC#N)CC4)CC3)n2)c(F)c1` [Compound C25, 1-((1-(cyanomethyl)cyclopropyl)methyl)-2-((4-((6-((4-ethynyl-2-fluorophenoxy)-methyl)pyridine-2-yl)oxy)piperidin-1-yl)methyl)-1H-benzo[d]imidazole-6-carboxylic acid], the EC50 worked out at 0.512 nM and the Max activity was determined as 133.4%.

The values above are taken from patent publication US20250282757A1, “ARYL ETHER-SUBSTITUTED HETEROCYCLIC COMPOUNDS AS GLP1R AGONISTS” (MINDRANK AI LTD., priority 2021, published 2025).
